Measured values published in the supplement of paper PMC4628005.

Experiments:
Details in all cases: drug exposure time: 96 h
[1] = compound: C=CCNC1=C2C[C@@H](C)C[C@H](OC)[C@H](O)[C@@H](C)/C=C(\C)[C@H](OC(N)=O)[C@@H](OC)/C=C\C=C(/C)C(=O)NC(=CC1=O)C2=O [17-AAG]
Method: (§1)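 Same SRB 96 h IC50 screen on breast cancer cell lines (RPMI 1640 + 10% FBS, collagen I-coated 96-well plates, triplicates, 12 dilutions), for drugs with a different dose range: Bortezomib up to 2e-5 M; Sirolimus and 17-AAG up to 2e-6 M. Sirolimus values at the 2e-6 M top dose are censored.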

[2] = compound: CO[C@H]1C[C@@H]2CC[C@@H](C)[C@@](O)(O2)C(=O)C(=O)N2CCCC[C@H]2C(=O)O[C@H]([C@H](C)C[C@@H]2CC[C@@H](O)[C@H](OC)C2)CC(=O)[C@H](C)/C=C(\C)[C@@H](O)[C@@H](OC)C(=O)[C@H](C)C[C@H](C)/C=C/C=C/C=C/1C [Sirolimus]
Method: as §1

[3] = compound: CC(C)C[C@H](NC(=O)[C@H](Cc1ccccc1)NC(=O)c1cnccn1)B(O)O [Bortezomib]
Method: as §1

[4] = compound: COc1ccc(C2=N[C@@H](c3ccc(Cl)cc3)[C@@H](c3ccc(Cl)cc3)N2C(=O)N2CCNC(=O)C2)c(OC(C)C)c1 [Nutlin-3]
Method: (§2)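 Breast cancer cell lines were grown in RPMI 1640 with 10% FBS on collagen I-coated 96-well plates and treated for 96 h (from 24 h after seeding) with 12 dilutions per drug, in triplicate. Growth was read by sulforhodamine B total-protein staining (absorbance 570 nm) relative to diluent control, and IC50 was calculated. The top dose was 1e-5 M for most drugs; Bortezomib went to 2e-5 M and Sirolimus and 17-AAG to 2e-6 M[…].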

[5] = compound: O=C1c2c(O)ccc(O)c2C(=O)c2c(NCCNCCO)ccc(NCCNCCO)c21 [Mitoxantrone]
Method: as §2

[6] = compound: O=C1NC(=O)[C@@H](c2cn3c4c(cccc24)CCC3)[C@@H]1c1c[nH]c2ccccc12 [ARQ197]
Method: as §2

[7] = compound: Cn1cncc1[C@@](N)(c1ccc(Cl)cc1)c1ccc2c(c1)c(-c1cccc(Cl)c1)cc(=O)n2C [Tipifarnib]
Method: as §2

[8] = compound: Cn1cc(CNCC2CCN(c3ncc(C(=O)NO)cn3)CC2)c2ccccc21 [Quisinostat]
Method: as §2

[9] = compound: C#Cc1cccc(Nc2ncnc3cc(OCCOC)c(OCCOC)cc23)c1 [Erlotinib]
Method: as §2

[10] = compound: Nc1ncn([C@@H]2O[C@H](CO)[C@@H](O)[C@H]2O)c(=O)n1 [Azacitidine]
Method: as §2

[11] = compound: CS(=O)(=O)CCNCc1ccc(-c2ccc3ncnc(Nc4ccc(OCc5cccc(F)c5)c(Cl)c4)c3c2)o1 [Lapatinib]
Method: as §2

[12] = compound: O=c1[nH]cc(F)c(=O)[nH]1 [5-Fluorouracil]
Method: as §2

[13] = compound: c1ccc2c(CCNc3ccc(Nc4ccncc4)cc3)c[nH]c2c1 [Serdemetan]
Method: as §2

[14] = compound: O=C(CCCCCCC(=O)Nc1ccccc1)NO [Vorinostat]
Method: as §2

[15] = compound: N.N.[Cl][Pt][Cl] [Cisplatin]
Method: as §2

[16] = compound: Cc1[nH]c2ccccc2c1CCNCc1ccc(/C=C/C(=O)NO)cc1 [Panobinostat]
Method: as §2

[17] = compound: CN(Cc1cnc2nc(N)nc(N)c2n1)c1ccc(C(=O)N[C@@H](CCC(=O)O)C(=O)O)cc1 [Methotrexate]
Method: as §2

[18] = compound: O=C(/C=C/c1cccc(S(=O)(=O)Nc2ccccc2)c1)NO [Belinostat]
Method: as §2

[19] = compound: CNC(=O)c1cc(Oc2ccc(NC(=O)Nc3ccc(Cl)c(C(F)(F)F)c3)cc2)ccn1 [Sorafenib]
Method: as §2

[20] = compound: CCN(CC)CCNC(=O)c1c(C)[nH]c(/C=C2\C(=O)Nc3ccc(F)cc32)c1C [Sunitinib]
Method: as §2

[21] = compound: Nc1ncn([C@H]2C[C@H](O)[C@@H](CO)O2)c(=O)n1 [Decitabine]
Method: as §2

[22] = compound: COc1cc2/c(=N/c3ccc(Br)cc3F)nc[nH]c2cc1OCC1CCN(C)CC1 [Vandetanib]
Method: as §2

[23] = compound: Cc1cc2c(F)c(Oc3ncnn4cc(OC[C@@H](C)O)c(C)c34)ccc2[nH]1 [Brivanib]
Method: as §2

[24] = compound: COc1cccc2c1C(=O)c1c(O)c3c(c(O)c1C2=O)C[C@@](O)(C(=O)CO)C[C@@H]3O[C@H]1C[C@H](N)[C@H](O)[C@H](C)O1 [Doxorubicin]
Method: as §2

[25] = compound: CC/C(=C(\c1ccccc1)c1ccc(OCCN(C)C)cc1)c1ccccc1 [Tamoxifen]
Method: as §2

[26] = compound: Cc1nc(Nc2ncc(C(=O)Nc3c(C)cccc3Cl)s2)cc(N2CCN(CCO)CC2)n1 [Dasatinib]
Method: as §2

[27] = compound: CC(=O)O[C@H]1C(=O)[C@@]2(C)[C@H]([C@H](OC(=O)c3ccccc3)[C@]3(O)C[C@H](OC(=O)[C@H](O)[C@@H](NC(=O)c4ccccc4)c4ccccc4)C(C)=C1C3(C)C)[C@]1(OC(C)=O)CO[C@@H]1C[C@@H]2O [Paclitaxel]
Method: as §2

[28] = compound: CC(C)(C)C[C@H]1N[C@@H](C(=O)NCC[C@H](O)CO)[C@H](c2cccc(Cl)c2)[C@@]12C(=O)Nc1cc(Cl)c(F)cc12 [MI-219]
Method: as §2

[29] = compound: CC(=O)O[C@@]12CO[C@@H]1C[C@H](O)[C@@]1(C)C(=O)[C@H](O)C3=C(C)[C@@H](OC(=O)[C@H](O)[C@@H](NC(=O)OC(C)(C)C)c4ccccc4)C[C@@](O)([C@@H](OC(=O)c4ccccc4)[C@H]21)C3(C)C [Docetaxel]
Method: as §2

[30] = compound: COc1cc2ncnc(Nc3ccc(F)c(Cl)c3)c2cc1OCCCN1CCOCC1 [Gefitinib]
Method: as §2

Test System	IC50 (SRB growth assay) [1] [nM]	IC50 (SRB growth assay) [2] [nM]	IC50 (SRB growth assay) [3] [nM]	IC50 (SRB growth assay) [4] [nM]	IC50 (SRB growth assay) [5] [nM]	IC50 (SRB growth assay) [6] [nM]	IC50 (SRB growth assay) [7] [nM]	IC50 (SRB growth assay) [8] [nM]	IC50 (SRB growth assay) [9] [nM]	IC50 (SRB growth assay) [10] [nM]	IC50 (SRB growth assay) [11] [nM]	IC50 (SRB growth assay) [12] [nM]	IC50 (SRB growth assay) [13] [nM]	IC50 (SRB growth assay) [14] [nM]	IC50 (SRB growth assay) [15] [nM]	IC50 (SRB growth assay) [16] [nM]	IC50 (SRB growth assay) [17] [nM]	IC50 (SRB growth assay) [18] [nM]	IC50 (SRB growth assay) [19] [nM]	IC50 (SRB growth assay) [20] [nM]	IC50 (SRB growth assay) [21] [nM]	IC50 (SRB growth assay) [22] [nM]	IC50 (SRB growth assay) [23] [nM]	IC50 (SRB growth assay) [24] [nM]	IC50 (SRB growth assay) [25] [nM]	IC50 (SRB growth assay) [26] [nM]	IC50 (SRB growth assay) [27] [nM]	IC50 (SRB growth assay) [28] [nM]	IC50 (SRB growth assay) [29] [nM]	IC50 (SRB growth assay) [30] [nM]
Hs 578T	49.4	0.946	5.74	> 10000	16.8	696	3930	12.7	> 10000	5800	> 10000	> 10000	2550	999	> 10000	18.5	26	543	6640	7020	> 10000	5710	> 10000	57.7	> 10000	1360	1.88	> 10000	0.796	> 10000
MDA-MB 435 S	164	> 2000	12.3	> 10000	35.8	705	> 10000	25.2	> 10000	3760	> 10000	2860	2050	2630	> 10000	44.5	12.4	2010	6530	5440	> 10000	6950	> 10000	54.8	> 10000	> 10000	2.15	> 10000	1.32	> 10000
SUM 44 PE	15.8	0.222	9.46	> 10000	20.7	539	3270	2.21	> 10000	3440	4760	8640	2880	564	> 10000	9.33	> 10000	139	5050	5020	> 10000	4200	> 10000	30.8	5200	> 10000	1.35	> 10000	0.414	> 10000
